Literature values in patent US6271232A, “Collagenase-1 and stromelysin-1 inhibitors, pharmaceutical compositions comprising same and methods of their use” (Affymax Technologies, N.V., priority 1999, dated 2001).

Target: rabbit bone proteoglycanase
Conditions: Delaisse et al. (1985)

IC50: 500 nM
Compound: CNC(=O)[C@H](Cc1ccc(OC)cc1)NC(=O)[C@H](CC(C)C)NC(CCNC(=O)OCc1ccccc1)C(=O)O (stereo partly drawn) [N-[3-(benzyloxy-carbonyl)amino-1-carboxy-n-propyl]-L-leucyl-O-methyl-L-tyrosine, N-methylamide]
